Assay type in all cases: binding
The target in test [1] is FGFR2K (FGFR2 kinase domain) (Homo sapiens, UniProt P21802, C491A). Nature of the test: NMR titration, 1H/[…] HMQC chemical shift perturbation.
Test [2] has as its target FGFR2K WT^0Y (FGFR2 kinase domain) (Homo sapiens, UniProt P21802, C491A/Y466F/Y586L/Y588P/Y656F/Y657F). In words: NMR titration, 1H/[…] methyl HMQC chemical shift perturbation.
In test [3] the target is FGFR2K V564I^0Y (FGFR2 kinase domain) (Homo sapiens, UniProt P21802, C491A/V564I/Y466F/Y586L/Y588P/Y656F/Y657F). The description is as above.
For test [4], the target named is FGFR2K V564E^0Y (FGFR2 kinase domain) (Homo sapiens, UniProt P21802, C491A/V564E/Y466F/Y586L/Y588P/Y656F/Y657F). The description is as above.
Sequence of FGFR2K V564E^0Y (FGFR2 kinase domain) (P21802 458-768 Y466F/C491A/V564E/Y586L/Y588P/Y656F/Y657F): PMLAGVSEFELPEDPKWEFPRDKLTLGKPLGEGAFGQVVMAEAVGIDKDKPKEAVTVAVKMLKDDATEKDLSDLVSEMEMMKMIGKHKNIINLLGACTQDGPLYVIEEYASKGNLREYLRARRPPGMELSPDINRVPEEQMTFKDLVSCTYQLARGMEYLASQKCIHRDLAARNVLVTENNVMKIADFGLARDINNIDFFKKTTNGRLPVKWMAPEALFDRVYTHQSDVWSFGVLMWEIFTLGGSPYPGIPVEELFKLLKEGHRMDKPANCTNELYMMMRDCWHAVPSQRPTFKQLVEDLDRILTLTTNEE

Sequence of FGFR2K (FGFR2 kinase domain) (P21802 458-768 C491A): as the sequence (P21802 458-768 Y466F/C491A/V564E/Y586L/Y588P/Y656F/Y657F) above, with F9Y, E107V, L129Y, P131Y, F199Y, F200Y counted along it
Sequence of FGFR2K V564I^0Y (FGFR2 kinase domain) (P21802 458-768 Y466F/C491A/V564I/Y586L/Y588P/Y656F/Y657F): as the sequence (P21802 458-768 Y466F/C491A/V564E/Y586L/Y588P/Y656F/Y657F) above, with E107I counted along it
Sequence of FGFR2K WT^0Y (FGFR2 kinase domain) (P21802 458-768 Y466F/C491A/Y586L/Y588P/Y656F/Y657F): as the sequence (P21802 458-768 Y466F/C491A/V564E/Y586L/Y588P/Y656F/Y657F) above, with E107V counted along it

`Nc1ncnc2c1ncn2[C@@H]1O[C@H](COP(=O)(O)OP(=O)(O)CP(=O)(O)O)[C@@H](O)[C@H]1O` [AMP-PCP]: the dissociation constant (Kd) (usually the concentration at which binding is half-saturated) in test [1] turned out to be 2900 ± 100 µM.
With `Nc1ncnc2c1ncn2[C@@H]1O[C@H](COP(=O)(O)OP(=O)(O)OP(=O)(O)O)[C@@H](O)[C@H]1O` [ATP], the results for the Kd in test [2], in test [3] and in test [4] were 450 ± 70 µM, 280 ± 30 µM and 140 ± 20 µM, respectively.

For the origin of these results see publication PMC9974468 (Proceedings of the National Academy of Sciences of the …, 2023).
